According to patent publication US9303016B2, “Derivatives of aza adamantane and uses thereof” (CONNEXIOS LIFE SCIENCES PVT. LTD., priority 2011, dated 2016):

target: T1, human full length HSD11β1 (Homo sapiens, UniProt P28845); assay: In Vitro HSD11β1 Inhibition Assay; type: cell-based; conditions: CHO cells transiently expressing human HSD11β1; 200 nM cortisone+500 uM NADPH overnight; cortisone to cortisol by LC/MS-MS; read-out: 11βHSD1 (IC50)
T1 construct: transient expression of human full length HSD11β1 expression vector; host or cells: CHO cells, transient transfection
T1 sequence (P28845 whole entry): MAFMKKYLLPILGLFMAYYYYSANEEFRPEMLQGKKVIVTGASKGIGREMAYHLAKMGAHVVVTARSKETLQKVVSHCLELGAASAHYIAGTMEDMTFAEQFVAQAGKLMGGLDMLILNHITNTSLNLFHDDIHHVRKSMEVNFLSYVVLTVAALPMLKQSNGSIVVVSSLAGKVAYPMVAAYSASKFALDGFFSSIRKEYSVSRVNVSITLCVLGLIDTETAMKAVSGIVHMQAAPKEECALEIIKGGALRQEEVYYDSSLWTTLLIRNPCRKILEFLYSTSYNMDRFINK
Procedure: In Vitro HSD11β1 Inhibition Assay:
CHO cells were maintained in Dulbecco's modified Eagle's medium/nutrient mixture F-12 containing 5% fetal bovine serum (v/v) and 2 mM glutamine. Cells were cultured at 37° C. with 5% CO2. For transient expression of human full length HSD11β1 expression vector (OriGene Technologies), cells were seeded at a density of 2×10^5 cells/well in a 6-well plate. Transfection was done using Turbofectin8 reagent (OriGene Technologies), according to the protocol provided with the reagent. After 24 hours post-transfection, cells were trypsinized and pooled together before they were re-seeding to 96-well plate at a density of 40000 cells/well. 24 hours after re-seeding, cells were incubated with 200 nM cortisone+500 uM NADPH (or along with small molecule inhibitors) overnight. The enzymatic activity or inhibition of enzyme activity was measured by estimating the conversion of cortisone to cortisol by LC/MS-MS method. The IC50 in nM was calculated from a 8 point log scale of concentration versus inhibition.

Row | SMILES | IC50
1 | O=C(CC(c1ccc(F)cc1)c1c[nH]c2ccccc12)N1C2CC3CC1CC(O)(C3)C2 (single isomer, unassigned) [Compound 81, 3-(4-fluorophenyl)-1-(5-hydroxy-2-azatricyclo[3.3.1.1^3,7]dec-2-yl)-3-(1H-indol-3-yl)propan-1-one] | > 250 nM
2 | CC(CC(=O)N1C2CC3CC1CC(O)(C3)C2)c1c[nH]c2cc(F)ccc12 (single isomer, unassigned) [Compound 97, 3-(6-fluoro-1H-indol-3-yl)-1-(5-hydroxy-2-azatricyclo[3.3.1.1^3,7]dec-2-yl)butan-1-one] | > 250 nM
3 | CC(CC(=O)N1C2CC3CC1CC(O)(C3)C2)c1c[nH]c2cccc(C3CC3)c12 (single isomer, unassigned) [Compound 103, 3-(4-cyclopropyl-1H-indol-3-yl)-1-(5-hydroxy-2-azatricyclo[3.3.1.1^3,7]dec-2-yl)butan-1-one] | > 250 nM
4 | CC(CC(=O)N1C2CC3CC1CC(O)(C3)C2)c1nc2ccccc2s1 (single isomer, unassigned) [Compound 115, 3-(1,3-benzothiazol-2-yl)-1-(5-hydroxy-2-azatricyclo[3.3.1.1^3,7]dec-2-yl)butan-1-one] | 200 to 250 nM
5 | CC(CC(=O)N1C2CC3CC1CC(C#N)(C3)C2)c1nc2c(Cl)cccc2s1 (single isomer, unassigned) [Compound 124, 2-[3-(4-chloro-1,3-benzothiazol-2-yl)butanoyl]-2-azatricyclo[3.3.1.1^3,7]decane-5-carbonitrile] | > 250 nM
6 | CC(CC(=O)N1C2CC3CC1CC(C#N)(C3)C2)c1nc2c(Cl)cccc2s1 (single isomer, unassigned) [Compound 125, 2-[3-(4-chloro-1,3-benzothiazol-2-yl)butanoyl]-2-azatricyclo[3.3.1.1^3,7]decane-5-carbonitrile] | > 250 nM
7 | COc1cc2c(C(C)CC(=O)N3C4CC5CC3CC(O)(C5)C4)c[nH]c2cc1Cl (single isomer, unassigned) [Compound 129, 3-(6-chloro-5-methoxy-1H-indol-3-yl)-1-(5-hydroxy-2-azatricyclo[3.3.1.1^3,7]dec-2-yl)butan-1-one] | > 250 nM
8 | CC(CC(=O)N1C2CC3CC1CC(CC(=O)O)(C3)C2)c1c[nH]c2cccc(C3CC3)c12 (single isomer, unassigned) [Compound 156, {2-[3-(4-cyclopropyl-1H-indol-3-yl)butanoyl]-2-azatricyclo[3.3.1.1^3,7]dec-5-yl}acetic acid] | > 250 nM
9 | CC(CC(=O)N1C2CC3CC1CC(O)(C3)C2)c1c[nH]c2ccc(F)c(C3CC3)c12 (single isomer, unassigned) [Compound 158, 3-(4-cyclopropyl-5-fluoro-1H-indol-3-yl)-1-(5-hydroxy-2-azatricyclo[3.3.1.1^3,7]dec-2-yl)butan-1-one] | > 250 nM
10 | CC(CC(=O)N1C2CC3CC1CC(O)(C3)C2)c1c[nH]c2ccc(Cl)c(Cl)c12 (single isomer, unassigned) [Compound 172, 3-(4,5-dichloro-1H-indol-3-yl)-1-(5-hydroxy-2-azatricyclo[3.3.1.1^3,7]dec-2-yl)butan-1-one] | > 250 nM
11 | Cc1ccc2[nH]cc(C(C)CC(=O)N3C4CC5CC3CC(O)(C5)C4)c2c1Cl (single isomer, unassigned) [Compound 174, 3-(4-chloro-5-methyl-1H-indol-3-yl)-1-(5-hydroxy-2-azatricyclo[3.3.1.1^3,7]dec-2-yl)butan-1-one] | > 250 nM
12 | CC(C)Oc1cccc2[nH]cc(C(C)CC(=O)N3C4CC5CC3CC(O)(C5)C4)c12 (single isomer, unassigned) [Compound 179, 1-(5-hydroxy-2-azatricyclo[3.3.1.1^3,7]dec-2-yl)-3-[4-(propan-2-yloxy)-1H-indol-3-yl]butan-1-one] | > 250 nM
13 | CC(C)Oc1cccc2[nH]cc(C(C)CC(=O)N3C4CC5CC3CC(F)(C5)C4)c12 (single isomer, unassigned) [Compound 185, 1-(5-fluoro-2-azatricyclo[3.3.1.1^3,7]dec-2-yl)-3-[4-(propan-2-yloxy)-1H-indol-3-yl]butan-1-one] | > 250 nM

Stronger by IC50, values ahead:

Row | IC50 | SMILES
14 | < 100 nM | CC(CC(=O)N1C2CC3CC1CC(O)(C3)C2)c1c[nH]c2cc(F)ccc12 (single isomer, unassigned) [Compound 98, 3-(6-fluoro-1H-indol-3-yl)-1-(5-hydroxy-2-azatricyclo[3.3.1.1^3,7]dec-2-yl)butan-1-one]
15 | < 100 nM | CC(CC(=O)N1C2CC3CC1CC(O)(C3)C2)c1c[nH]c2cccc(C3CC3)c12 (single isomer, unassigned) [Compound 102, 3-(4-cyclopropyl-1H-indol-3-yl)-1-(5-hydroxy-2-azatricyclo[3.3.1.1^3,7]dec-2-yl)butan-1-one]
16 | < 100 nM | COc1cc2c(C(C)CC(=O)N3C4CC5CC3CC(O)(C5)C4)c[nH]c2cc1Cl (single isomer, unassigned) [Compound 130, 3-(6-chloro-5-methoxy-1H-indol-3-yl)-1-(5-hydroxy-2-azatricyclo[3.3.1.1^3,7]dec-2-yl)butan-1-one]
17 | 100 to 150 nM | O=C(CC(c1ccccc1)c1c[nH]c2cc(Cl)ccc12)N1C2CC3CC1CC(C(=O)O)(C3)C2 (single isomer, unassigned) [Compound 141, 2-[3-(6-chloro-1H-indol-3-yl)-3-phenylpropanoyl]-2-azatricyclo[3.3.1.1^3,7]decane-5-carboxylic acid]
18 | 100 to 150 nM | Cc1c(F)ccc2[nH]cc(C(C)CC(=O)N3C4CC5CC3CC(O)(C5)C4)c12 (single isomer, unassigned) [Compound 147, 3-(5-fluoro-4-methyl-1H-indol-3-yl)-1-(5-hydroxy-2-azatricyclo[3.3.1.1^3,7]dec-2-yl)butan-1-one]
19 | < 100 nM | Cc1c(F)ccc2[nH]cc(C(C)CC(=O)N3C4CC5CC3CC(O)(C5)C4)c12 (single isomer, unassigned) [Compound 148, 3-(5-fluoro-4-methyl-1H-indol-3-yl)-1-(5-hydroxy-2-azatricyclo[3.3.1.1^3,7]dec-2-yl)butan-1-one]
20 | 100 to 150 nM | CC(CC(=O)N1C2CC3CC1CC(CC(=O)O)(C3)C2)c1c[nH]c2cccc(C3CC3)c12 (single isomer, unassigned) [Compound 155, {2-[3-(4-cyclopropyl-1H-indol-3-yl)butanoyl]-2-azatricyclo[3.3.1.1^3,7]dec-5-yl}acetic acid]
21 | < 100 nM | Cc1ccc2[nH]cc(C(C)CC(=O)N3C4CC5CC3CC(O)(C5)C4)c2c1C (single isomer, unassigned) [Compound 169, 3-(4,5-dimethyl-1H-indol-3-yl)-1-(5-hydroxy-2-azatricyclo[3.3.1.1^3,7]dec-2-yl)butan-1-one]
22 | < 100 nM | Cc1ccc2[nH]cc(C(C)CC(=O)N3C4CC5CC3CC(O)(C5)C4)c2c1Cl (single isomer, unassigned) [Compound 175, 3-(4-chloro-5-methyl-1H-indol-3-yl)-1-(5-hydroxy-2-azatricyclo[3.3.1.1^3,7]dec-2-yl)butan-1-one]
23 | < 100 nM | CC(C)Oc1cccc2[nH]cc(C(C)CC(=O)N3C4CC5CC3CC(F)(C5)C4)c12 (single isomer, unassigned) [Compound 184, 1-(5-fluoro-2-azatricyclo[3.3.1.1^3,7]dec-2-yl)-3-[4-(propan-2-yloxy)-1H-indol-3-yl]butan-1-one]
